Reference: patent US20150290231A1, “COMPOSITION FOR INHIBITING CELLULAR SENESCENCE COMPRISING QUERCETIN-3-O-beta-D-GLUCURONIDE” (INDUSTRY-ACADEMIC COOPERATION FOUNDATION, YEUNGNAM …, priority 2012, published 2015)

Key:
p53 [1] = assay: Western blot of p53 in adriamycin-treated HDFs; type: cell-based, human; settings: Q3GA 1 h prior to adriamycin 500 nM 4 h, concentration-dependent
Method: (§1) FIG. 3 represents the effect of Q3GA on the expression levels of p53, pS6K, and p21 proteins in HDFs and HUVECs treated with adriamycin. Cells were treated with the indicated concentrations of Q3GA for 1 h prior to adriamycin treatment and incubated for 4 h. Proteins from cells were extracted and separated. The expression levels of each protein were analyzed by Western blotting. Representative data of 3 independent experiments are shown. NT, not treated with adrimycin; ADR, adriamcyin; C, control; D, dimethyl sulfoxide; N, 5 mM N-acetylcysteine; R, 500 nM rapamycin.
(§2) Each cells were divided into a 60 mm culture dish to the cell number of 1×10^5, and then cultured at 37° C. in a 5% CO2 incubator. […] The amount of the protein in the solution was quantified by bicinchoninic acid (BCA) method (Pierce Biotechnology Inc., Rockford Ill., USA) by using bovine serum albumin as a standard protein.
(§3) Protein (30 μg) was separated by being electrophoresed through a 10% SDS-polyacrylamide gel. […] The membrane was washed five times with TTBS for every 5 min, and then the amounts of p53, p21 and pS6 were measured by using an enhanced chemiluminescence solution. The amount of the specific protein reacted with each antibody was measured by using a LAS-3000 imaging system (Fujifilm Corp., Stanford, Conn., USA). […]

[2] = tested on: human dermal fibroblasts (HDFs); assay: Replicative senescence, SA-β-gal activity staining, old HDFs; type: cell-based; settings: old HDFs (PD>75); increasing Q3GA concentration; 3 days; concentration-dependent
Method: (§4) FIG. 6 represents the effect of Q3GA on replicative senescence of HDFs. Old cells (3×10^4/well) were seeded in 6 well plates and incubated with or without 10 µg/mL of Q3GA for 3 days. Cellular senescence was assessed by SA-β-gal activity staining. Representative pictures of 3 independent experiments are shown. Percentages of SA-β-gal positive cells were measured. Values are means±SDs from 3 independent experiments. O, old cells; D, dimethyl sulfoxide; N, 5 mM N-acetylcysteine; R, 500 nM rapamycin. *p<0.05 or **p<0.05 vs DMSO.
(§5) HDFs in DMEM with 10% FBS and 1% antibiotics (penicillin 10,000 unit/mL and streptomycin […]) were seeded at 1×10^5 cells per 100 mm culture plate and incubated at 37° C. in 5% CO2 humidified air. When subcultures reached 80-90% confluence, serial passaging was performed by trypsinization. HUVECs in EGM-2 media were cultured under the same conditions. The number of population doublings (PDs) was monitored for further experiments. PD was calculated using the geometric equation: PD=log 2F/log 2I (F, final cell number; I, initial cell number). HDFs in PD<35 and HUVECs in PD<30 were used for adriamycin-induced cellular senescence. HDFs in PD>75 and HUVECs in PD>50 were used as old cells under replicative senescence.
The effect of single component on cellular senescence was examined by SA-β-gal activity staining. […]

p21 [3] = assay: Western blot of p21 in adriamycin-treated HDFs; type: cell-based, human; settings: Q3GA 1 h prior to adriamycin 500 nM 4 h, concentration-dependent
Method: as §1, §2, §3

p53 [4] = assay: Western blot of p53 in adriamycin-treated HUVECs; type: cell-based, human; settings: Q3GA 1 h prior to adriamycin 500 nM 4 h, concentration-dependent
Method: as §1, §2, §3

[5] = tested on: human dermal fibroblasts (HDFs); assay: Intracellular ROS (DCF fluorescence, flow cytometry) in adriamycin-treated HDFs; type: cell-based; settings: Q3GA 10 μg/ml, 3 days
Method: (§6) FIG. 4 represents the effect of Q3GA on intracellular ROS levels increased by adriamycin treatment in HDFs. Young cells (1.5×10^5) treated with or without adrimcyin were seeded in 60 mm culture dishes and incubated for 24 h. Following treatment of cells with 10 µg/mL of Q3GA, 0.5% DMSO, 5 mM NAC, or 500 nM rapamcyin for 3 days, cells were loaded with 250 µM H2DCFDA for 20 min. The DCF fluorescence intensity of each population of 10,000 cells was measured by flow cytometry. Representative data from three independent experiments are shown. Median fluorescence intensities were obtained and compared. Values are means±SDs from 3 independent experiments. NT, not treated with adrimycin; ADR, adriamcyin; C, control; D, dimethyl sulfoxide; N, 5 mM N-acetylcysteine; R, 500 nM rapamycin. *p<0.05 vs DMSO.
(§7) Each cells were divided into a 100 mm culture dish to the cell number of 1.5×10^5, and then cultured at 37° C. in a 5% CO2 incubator for 3 days. The cells were washed two times with DMEM medium containing antibiotics, and then adriamycin 500 nM was treated thereto for 4 hours. The cells were separated by treating trypsin-EDTA solution (2.5%), and then divided again into a 60 mm culture dish to the cell number of 1×10^5 followed by culturing at 37° C. in a 5% CO2 incubator. […] ROS was measured by using BD FACS Canto II flow cytometry (BD Biosciences, San Jose, Calif.).

[6] = tested on: human umbilical vein endothelial cells (HUVECs); assay: Adriamycin-induced cellular senescence, SA-β-gal activity staining, HUVECs; type: cell-based; settings: 3 days
Method: (§8) FIG. 2 represents the effect of quercetin-3-O-β-D-glucuronide (Q3GA) on adriamycin-induced cellular senescence in human umbilical vein endothelial cells (HUVECs). Cells treated with 500 nM adriamycin for 4 h were seeded at 1,000 cells/well in 96 well plates. After treatment with increasing concentrations of Q3GA, cells were incubated for 3 days and cellular senescence assessed by SA-β-gal activity staining. SA-β-gal activity staining (Left) and percentages of SA-β-gal positive cells in HUVECs (Right). Representative SA-β-gal staining pictures of 3 independent experiments are shown. Values are means±SDs from 3 independent experiments measured in triplicates. C, control; D, dimethyl sulfoxide; N, 5 mM N-acetylcysteine; R, 500 nM rapamycin. *p<0.05 or **p<0.01 vs DMSO.
as §5, with “HDFs in PD<35 and HUVECs in PD<30 were used for adriamycin-induced cellular senescence. HDFs in PD>75 and HUVECs in PD>50 were used as old cells under replicative senescence.” left out

[7] = tested on: human umbilical vein endothelial cells (HUVECs); assay: Replicative senescence, SA-β-gal activity staining, old HUVECs; type: cell-based; settings: old HUVECs (PD>50); increasing Q3GA concentration; 3 days; concentration-dependent
Method: as §4, with “7” for “6”, “HUVECs. […]” for “HDFs. Old cells (3×10^4/well) were seeded in 6 well plates and incubated with or without 10 µg/mL of Q3GA for 3 days.”
as §5
The effect of single component on cellular senescence was examined by SA-β-gal activity staining. Each single component was treated in a 24-well culture plate or a 12-well culture plate for 3 days, and then the cells were washed with phosphate buffer. […]

[8] = tested on: human umbilical vein endothelial cells (HUVECs); assay: Intracellular ROS (DCF fluorescence, flow cytometry) in adriamycin-treated HUVECs; type: cell-based; settings: Q3GA 10 μg/ml, 3 days
Method: as §6, with “FIG. 5” for “FIG. 4”, “in HUVECs.” for “in HDFs.”
as §7

[9] = tested on: human dermal fibroblasts (HDFs); assay: Adriamycin-induced cellular senescence, SA-β-gal activity staining, HDFs; type: cell-based; settings: 3 days
Method: as §8, with “1” for “2”, “dermal fibroblasts (HDFs).” for “umbilical vein endothelial cells (HUVECs).”, “500” for “1,000”, “HDFs” for “HUVECs”
as §5, with “HDFs in PD>75 and HUVECs in PD>50 were used as old cells under replicative senescence.” left out

p21 [10] = assay: Western blot of p21 in adriamycin-treated HUVECs; type: cell-based, human; settings: Q3GA 1 h prior to adriamycin 500 nM 4 h, concentration-dependent
Method: as §1, §2, §3

[11] = Q3GA 10 μg/ml, adriamycin 500 nM 4 h
[12] = increasing concentrations of Q3GA

Q: `O=C(O)[C@H]1O[C@@H](Oc2c(-c3ccc(O)c(O)c3)oc3cc(O)cc(O)c3c2=O)[C@H](O)[C@@H](O)[C@@H]1O` [Q3GA, quercetin-3-O-β-D-glucuronide] was tested. Which “level of p53 protein increased by adriamycin” value (p53 [1]) did it give?
A: reduced

Q: What about the “SA-β-gal activity under replicative senescence” value [2] of the same compound?
A: decreased SA-β-gal activity

Q: And the “level of p21 protein increased by adriamycin” value (p21 [3])?
A: reduced

Q: And the “level of p53 protein increased by adriamycin” value (p53 [4])?
A: reduced

Q: What about the “intracellular ROS levels augmented by adriamycin (DCF fluorescence intensity)” value [5] of the same compound?
A: decreased intracellular ROS levels

Q: What about the “SA-β-gal activity staining increased by adriamycin” value [6, 11] of the same compound?
A: reduced by Q3GA treatment

Q: And the “SA-β-gal activity increased by adriamycin, concentration dependence” value [6, 12]?
A: reduced as Q3GA concentration was increased

Q: And the “SA-β-gal activity under replicative senescence” value [7]?
A: decreased SA-β-gal activity

Q: What about the “intracellular ROS levels augmented by adriamycin (DCF fluorescence intensity)” value [8] of the same compound?
A: decreased intracellular ROS levels

Q: And the “SA-β-gal activity staining increased by adriamycin” value [9, 11]?
A: reduced by Q3GA treatment

Q: And the “SA-β-gal activity increased by adriamycin, concentration dependence” value [9, 12]?
A: reduced as Q3GA concentration was increased

Q: What about the “level of p21 protein increased by adriamycin” value (p21 [10]) of the same compound?
A: reduced
